Where a name gives a salt, the structure may show the parent alone. Read-outs that look alike come from different tables or passages of the source.
Tested on: Acinetobacter baumannii ATCC17961
Experiment: Antimicrobial susceptibility testing: 90% growth inhibitory concentration (IC90) determination in Iso-Sensitest broth, OD600 growth
Format: cell-based
Procedure, shortened: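 Growth monitored at 600 nm every 20 min for 16 h at 35±2 °C, inoculum ~5×10^(5) CFU/ml in Iso-Sensitest medium. Compounds in 10-point twofold series, e.g. 50 to 0.097 μM final; 90% inhibitory concentration taken from log-phase growth.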

[1] = Acinetobacter baumannii, ATCC17961, 16 h, strain ATCC 17961, OD600 growth over 16 h, read-out: A. baumannii ATCC 17961 IC90
[2] = Acinetobacter baumannii, ATCC17961, 16 h, read-out: A. baumannii ATCC 17961 IC90 (uM), strain ATCC 17961, OD600 growth over 16 h
[3] = strain ATCC 17961, OD600 growth over 16 h, read-out: A. baumannii ATCC 17961 IC90

SMILES	IC90 [1]	IC90 [2]	further results
CCc1cc(Nc2nccn3c(-c4cn(CCN5CCCC5)nc4C(F)(F)F)cnc23)ccc1C(=O)NCCOCCN [Example 269, N-[2-(2-aminoethoxy)ethyl]-2-ethyl-4-[[3-[1-(2-pyrrolidin-1-ylethyl)-3-(trifluoromethyl)pyrazol-4-yl]imidazo[1,2-a]pyrazin-8-yl]amino]benzamide]	1.39 µM		
CCc1cc(Nc2nccn3c(-c4c[nH]nc4C(F)(F)F)cnc23)ccc1C(=O)NCCCNCCCCNCCCN [Example 270, N-[3-[4-(3-aminopropylamino)butylamino]propyl]-2-ethyl-4-[[3-[3-(trifluoromethyl)-1H-pyrazol-4-yl]imidazo[1,2-a]pyrazin-8-yl]amino]benzamide]	2.66 µM		
CCc1cc(Nc2nccn3c(-c4cn(CC(=O)O)nc4C(F)(F)F)cnc23)ccc1C(=O)NCCOCCN [Example 271, 2-[4-[8-[4-[2-(2-aminoethoxy)ethylcarbamoyl]-3-ethylanilino]imidazo [1,2-a]pyrazin-3-yl]-3-(trifluoromethyl)pyrazol-1-yl]acetic acid]	3.07 µM		
C=CCn1cc(-c2cnc3c(Nc4ccc(C(=O)NCCOCCN)c(CC)c4)nccn23)c(C(F)(F)F)n1 [Example 272, N-[2-(2-aminoethoxy)ethyl]-2-ethyl-4-[[3-[1-prop-2-enyl-3-(trifluoromethyl)pyrazol-4-yl]imidazo[1,2-a]pyrazin-8-yl]amino]benzamide formate]		0.085 µM	
CCc1cc(Nc2nccn3c(-c4cn(C5CCC5)nc4C(F)(F)F)cnc23)ccc1C(=O)NCCOCCN [Example 273, N-[2-(2-aminoethoxy)ethyl]-4-[[3-[1-cyclobutyl-3-(trifluoromethyl)pyrazol-4-yl]imidazo[1,2-a]pyrazin-8-yl]amino]-2-ethylbenzamide formate]		0.087 µM	
C=C(Cl)Cn1cc(-c2cnc3c(Nc4ccc(C(=O)NCCOCCN)c(CC)c4)nccn23)c(C(F)(F)F)n1 [Example 274, N-[2-(2-aminoethoxy)ethyl]-4-[[3-[1-(2-chloroprop-2-enyl)-3-(trifluoromethyl)pyrazol-4-yl]imidazo[1,2-a]pyrazin-8-yl]amino]-2-ethylbenzamide formate]		0.101 µM	
C=C(Cl)C(C)n1cc(-c2cnc3c(Nc4ccc(C(=O)NCCOCCN)c(CC)c4)nccn23)c(C(F)(F)F)n1 (centres unmarked) [Example 275, N-[2-(2-aminoethoxy)ethyl]-4-[[3-[1-(3-chlorobut-3-en-2-yl)-3-(trifluoromethyl)pyrazol-4-yl]imidazo[1,2-a]pyrazin-8-yl]amino]-2-ethylbenzamide formate]		0.169 µM	
CCc1cc(Nc2nccn3c(-c4cn(CC(F)(F)F)nc4C(F)(F)F)cnc23)ccc1C(=O)NCCOCCN [Example 276, N-[2-(2-aminoethoxy)ethyl]-2-ethyl-4-[[3-[1-(2,2,2-trifluoroethyl)-3-(trifluoromethyl)pyrazol-4-yl]imidazo[1,2-a]pyrazin-8-yl]amino]benzamide formate]		0.178 µM	
CCc1cc(Nc2nccn3c(-c4cn(CC5CC5(F)F)nc4C(F)(F)F)cnc23)ccc1C(=O)NCCOCCN (centres unmarked) [Example 277, N-[2-(2-aminoethoxy)ethyl]-4-[[3-[1-[(2,2-difluorocyclopropyl)methyl]-3-(trifluoromethyl)pyrazol-4-yl]imidazo[1,2-a]pyrazin-8-yl]amino]-2-ethylbenzamide formate]		0.186 µM	
CCc1cc(Nc2nccn3c(-c4cn(C(CO)CCl)nc4C(F)(F)F)cnc23)ccc1C(=O)NCCOCCN (centres unmarked) [Example 278, N-[2-(2-aminoethoxy)ethyl]-4-[[3-[1-(1-chloro-3-hydroxypropan-2-yl)-3-(trifluoromethyl)pyrazol-4-yl]imidazo[1,2-a]pyrazin-8-yl]amino]-2-ethylbenzamide formate]		0.332 µM	
CCc1cc(Nc2nccn3c(-c4cn(CC(C)(CO)CCl)nc4C(F)(F)F)cnc23)ccc1C(=O)NCCOCCN (centres unmarked) [Example 279, N-[2-(2-aminoethoxy)ethyl]-4-[[3-[1-[2-(chloromethyl)-3-hydroxy-2-methylpropyl]-3-(trifluoromethyl)pyrazol-4-yl]imidazo[1,2-a]pyrazin-8-yl]amino]-2-ethylbenzamide formate]		0.664 µM	
CCNC(=O)c1ccc(Nc2nccn3c(-c4c[nH]nc4C(F)(F)F)cnc23)cc1CC [Example 280, N,2-diethyl-4-[[3-[3-(trifluoromethyl)-1H-pyrazol-4-yl]imidazo[1,2-a]pyrazin-8-yl]amino]benzamide]	0.517 µM		
CNC(=O)c1ccc(Nc2nccn3c(-c4cn(Cc5ccncn5)nc4C(F)(F)F)cnc23)cc1Cl [Example 281, 2-chloro-N-methyl-4-[[3-[1-(pyrimidin-4-ylmethyl)-3-(trifluoromethyl)pyrazol-4-yl]imidazo[1,2-a]pyrazin-8-yl]amino]benzamide]	0.345 µM		
CCc1cc(Nc2nccn3c(-c4cn(Cc5ccncn5)nc4C(F)(F)F)cnc23)ccc1C(=O)NC [Example 282, 2-ethyl-N-methyl-4-[[3-[1-(pyrimidin-4-ylmethyl)-3-(trifluoromethyl)pyrazol-4-yl]imidazo[1,2-a]pyrazin-8-yl]amino]benzamide]	0.701 µM		
CCc1cc(Nc2nccn3c(-c4cn(CCN)nc4C(F)(F)F)cnc23)ccc1C(=O)NC [Example 283, 4-[[3-[1-(2-aminoethyl)-3-(trifluoromethyl)pyrazol-4-yl]imidazo[1,2-a]pyrazin-8-yl]amino]-2-ethyl-N-methylbenzamide]	1.56 µM		
CNC(=O)c1ccc(Nc2nccn3c(-c4cn(Cc5cc[nH]n5)nc4C(F)(F)F)cnc23)cc1Cl [Example 284, 2-chloro-N-methyl-4-[[3-[1-(1H-pyrazol-3-ylmethyl)-3-(trifluoromethyl)pyrazol-4-yl]imidazo[1,2-a]pyrazin-8-yl]amino]benzamide]	0.177 µM		
NC1CCN(C(=O)N2CCN(C(=O)c3ccc(Nc4nccn5c(-c6c[nH]nc6C(F)(F)F)cnc45)cc3Cl)CC2)CC1 [Example 285, [4-(4-aminopiperidine-1-carbonyl)piperazin-1-yl]-[2-chloro-4-[[3-[3-(trifluoromethyl)-1H-pyrazol-4-yl]imidazo[1,2-a]pyrazin-8-yl]amino]phenyl] methanone formate]		0.185 µM	
N#CCn1cc(-c2cnc3c(Nc4ccc(C(=O)N5CCN(C(=O)CCN)CC5)c(Cl)c4)nccn23)c(C(F)(F)F)n1 [Example 286, 2-[4-[8-[4-[4-(3-aminopropanoyl)piperazine-1-carbonyl]-3-chloroanilino]imidazo[1,2-a]pyrazin-3-yl]-3-(trifluoromethyl)pyrazol-1-yl]acetonitrile formate]		0.226 µM	
NC1CCC(NC(=O)N2CCN(C(=O)c3ccc(Nc4nccn5c(-c6c[nH]nc6C(F)(F)F)cnc45)cc3Cl)CC2)CC1 (centres unmarked) [Example 287, N-(4-aminocyclohexyl)-4-[2-chloro-4-[[3-[3-(trifluoromethyl)-1H-pyrazol-4-yl]imidazo[1,2-a]pyrazin-8-yl]amino]benzoyl] piperazine-1-carboxamide formate]			IC90 [3]: 0.23 µM
N#CCn1cc(-c2cnc3c(Nc4ccc(C(=O)N5CCN(C(=O)N[C@@H]6CCNC6)CC5)c(Cl)c4)nccn23)c(C(F)(F)F)n1 [Example 288, 4-[2-chloro-4-[[3-[1-(cyanomethyl)-3-(trifluoromethyl)pyrazol-4-yl]imidazo[1,2-a]pyrazin-8-yl]amino]benzoyl]-N-[(3R)-pyrrolidin-3-yl]piperazine-1-carboxamide formate]		0.233 µM	
NC1CC(NC(=O)N2CCN(C(=O)c3ccc(Nc4nccn5c(-c6c[nH]nc6C(F)(F)F)cnc45)cc3Cl)CC2)C1 (centres unmarked) [Example 289, N-(3-aminocyclobutyl)-4-[2-chloro-4-[[3-[3-(trifluoromethyl)-1H-pyrazol-4-yl]imidazo[1,2-a]pyrazin-8-yl]amino]benzoyl] piperazine-1-carboxamide formate]			IC90 [3]: 0.234 µM
COCCn1cc(-c2cnc3c(Nc4ccc(C(=O)N5CCN(C(=O)NCCN)CC5)c(Cl)c4)nccn23)c(C(F)(F)F)n1 [Example 290, N-(2-aminoethyl)-4-[2-chloro-4-[[3-[1-(2-methoxyethyl)-3-(trifluoromethyl)pyrazol-4-yl]imidazo[1,2-a]pyrazin-8-yl]amino]benzoyl] piperazine-1-carboxamide formate]			IC90 [3]: 0.33 µM
NC1CCC(NC(=O)N2CCN(C(=O)c3ccc(Nc4nccn5c(-c6c[nH]nc6C(F)(F)F)cnc45)cc3Cl)CC2)CC1 (centres unmarked) [Example 291, N-(4-aminocyclohexyl)-4-[2-chloro-4-[[3-[3-(trifluoromethyl)-1H-pyrazol-4-yl]imidazo[1,2-a]pyrazin-8-yl]amino]benzoyl] piperazine-1-carboxamide formate]			IC90 [3]: 0.332 µM
N[C@H]1CC[C@H](NC(=O)N2CCN(C(=O)c3ccc(Nc4nccn5c(-c6c[nH]nc6C(F)(F)F)cnc45)cc3Cl)CC2)C1 [Example 292, N-[(1S,3S)-3-aminocyclopentyl]-4-[2-chloro-4-[[3-[3-(trifluoromethyl)-1H-pyrazol-4-yl]imidazo[1,2-a]pyrazin-8-yl]amino]benzoyl] piperazine-1-carboxamide formate]			IC90 [3]: 0.354 µM
COCCn1cc(-c2cnc3c(Nc4ccc(C(=O)N5CCN(C(=O)N[C@H]6CCNC6)CC5)c(Cl)c4)nccn23)c(C(F)(F)F)n1 [Example 293, 4-[2-chloro-4-[[3-[1-(2-methoxyethyl)-3-(trifluoromethyl)pyrazol-4-yl]imidazo[1,2-a]pyrazin-8-yl]amino]benzoyl]-N-[(3S)-pyrrolidin-3-yl]piperazine-1-carboxamide formate]		0.429 µM	
COCCn1cc(-c2cnc3c(Nc4ccc(C(=O)N5CCN(C(=O)CCN)CC5)c(Cl)c4)nccn23)c(C(F)(F)F)n1 [Example 294, 3-amino-1-[4-[2-chloro-4-[[3-[1-(2-methoxyethyl)-3-(trifluoromethyl)pyrazol-4-yl]imidazo[1,2-a]pyrazin-8-yl]amino]benzoyl]piperazin-1-yl]propan-1-one formate]		0.457 µM	

Reference: patent US20230203043A1, “NOVEL IMIDAZOPYRAZINE DERIVATIVES” (Hoffmann-La Roche Inc., priority 2020, published 2023)
